# According to patent publication US20200237742A1, “Serdexmethylphenidate Conjugates, Compositions And Methods Of Use Thereof” (priority 2018, published 2020):
# Structures can show the parent of a compound that is named as a salt.
# Experiments:
# [1] = test system: recreational stimulant abusers; test: Intravenous abuse potential study, VAS pharmacodynamic assessments; assay type: in vivo, human
# Source text: “Drug liking” score, used herein, is the score used to assess the degree that a human participant likes a drug effect at the time the question is being asked (that is, at the moment). It is scored using a 0 to 100 point bipolar visual analogue scale (VAS) anchored in the center with a neutral anchor of “neither like nor dislike” (score of 50), on the left with “strong disliking” (score of 0) and on the right with “strong liking” (score of 100).
# “Euphoria” or “Feeling High” score, used herein, is the term to describe the score used to assess the degree that a human participant is high at the time the question is being asked (that is, at the moment). It is scored using a 0 to 100 point unipolar visual analogue scale (VAS) anchored on the left with “Not at All” (score of 0) and on the right with “Extremely” (score of 100).
# “Take Drug Again” score, used herein, is the term to describe the score used to assess the degree that a human participant wants to take the drug again, if given the opportunity, based on his/her opinion now, i.e., at the time the question is being asked. It is scored using a 0 to 100 point unipolar visual analogue scale (VAS) anchored on the left with “Definitely Would Not” (score of 0) and on the right with “Definitely Would” (score of 100).
# “Overall Drug Liking” score, used herein, is the term to describe the score used to assess the human subject's global perception of drug liking (i.e., the subjective effects over the whole course of the drug experience including any carryover effects). Subjects respond to the statement “Overall, my liking for this drug is.” The question is scored using a 0-100 point bipolar VAS anchored on the left with “Strong Disliking” (score of 0); “Neither Like nor Dislike” (score of 50) in the middle, and anchored on the right with “Strong Liking” (score of 100). This scale has the advantage of the human subject being relatively less affected or unaffected by acute study drug effects (if any) by the time of the assessment.
# “Good Effects” score, used herein, is the term to describe the score used to assess the degree that a human participant is feeling good drug effects at the time the question is being asked (that is, at the moment). Subjects respond to the statement “At this moment, I can feel good drug effects.” It is scored using a 0 to 100 point unipolar visual analogue scale (VAS) anchored on the left with “Not at All” (score of 0) and on the right with “Extremely” (score of 100).
# Safety assessments were performed throughout the study.
# [2] = test system: recreational stimulant abusers; test: Intravenous study, treatment-emergent adverse events; details: d-methylphenidate treatment vs serdexmethylphenidate
# Method: (§1) A study was conducted in humans to assess the intravenous abuse potential of serdexmethylphenidate relative to unconjugated d-methylphenidate and placebo in recreational stimulant abusers. This was a Phase 1, randomized, double-blind study in which serdexmethylphenidate and d-methylphenidate were administered intravenously in recreational stimulant users with a history of non-oral abuse. In Part A of the study, subjects (Cohort 1) participated in a dose-escalation phase to determine the optimal dose of intravenous d-methylphenidate based on tolerability and abuse-related pharmacodynamic assessments. […] The doses of serdexmethylphenidate and d-methylphenidate are equivalent with respect to molar amount of d-methylphenidate. FDA-recommended abuse potential measures and blood samples were collected at different times after dosing. Safety assessments were performed throughout the study.
# [3] = test system: healthy, nondependent, recreational stimulant users; test: Oral abuse potential study, VAS pharmacodynamic assessments
# [4] = Intranasal study (KP415.A02), plasma pharmacokinetics; assay type: in vivo, human; details: intranasal administration
# Method: On dosing days in the Treatment Phase, blood samples were collected for the measurement of the plasma concentrations of SDX, d-methylphenidate (d-MPH), 1-methylphenidate (1-MPH) and ritalinic acid at predose and at 0.25, 0.5, 0.75, 1, 1.5, 2, 3, 4, 5, 6, 7, 8, 9, 10, 12, 16, 24, 36, and 48 hours ±5 minutes after each dose of study drug. […] All VAS pharmacodynamic assessments except Take Drug Again and Overall Drug Liking were performed at 0.25, 0.5, 0.75, 1, 1.5, 2, 3, 4, 5, 6, 7, 8, 10, 12, 24 hours ±5 minutes postdose. In addition, predose assessments of Feeling High, and Drowsiness/Alertness were collected. The Take Drug Again and Overall Drug Liking VAS assessments were performed at 12 and 24 hours ±5 minutes postdose. Ease of Nasal Insufflation scores were completed within 5 minutes after the completion of each intranasal drug administration during the Treatment Phase.
# [5] = Intravenous pharmacokinetic study (KP415.A03) in recreational stimulant users; details: following intravenous administration
# Method: as §1
# [6] = Focalin XR 80 mg, phentermine HCl 60 mg, bipolar VAS
# [7] = Focalin XR 80 mg, phentermine HCl 60 mg, unipolar VAS
# [8] = phentermine HCl 60 mg vs SDX Cl 120 mg
# [9] = phentermine HCl 60 mg vs SDX Cl 240 mg
# [10] = phentermine HCl 60 mg vs placebo
structure (smiles),measurement,setting,value
"COC(=O)[C@H](c1ccccc1)[C@H]1CCCCN1 [d-methylphenidate, methyl (R)-2-phenyl-2-((R)-piperidin-2-yl)acetate, reference compound]","Drug Liking Emax, statistical analysis vs. placebo",[1]; d-MPH HCl 15 mg vs placebo (study validity),significantly higher
same,"Typical stimulant-related Adverse Events (euphoric mood, hypervigilance, increased heart rate)",[2],more common
"CC(C)(N)Cc1ccccc1 [phentermine hydrochloride, reference compound]","Drug Liking Emax, Median",[3]; [6],84.0
same,"Feeling Alert/Drowsy Emax, Median",[3]; [6],84.0
same,"Overall Drug Liking Emax, Median",[3]; [6],77.0
same,"Take Drug Again Emax, Median",[3]; [6],75.0
same,"Any Effects Emax, Median",[3]; [7],74.0
same,"Bad Effects Emax, Median",[3]; [7],7.0
same,"Feeling High Emax, Median",[3]; [7],76.0
same,"Good Effects Emax, Median",[3]; [7],75.0
same,"Mean Difference Any Effects Emax, D vs A",[3]; [8],37.4
same,"Mean Difference Bad Effects Emax, D vs A",[3]; [8],11.9
same,"Mean Difference Feeling Alert/Drowsy Emax, D vs A",[3]; [8],15.7
same,"Mean Difference Feeling High Emax, D vs A",[3]; [8],36.0
same,"Mean Difference Good Effects Emax, D vs A",[3]; [8],35.5
same,"Mean Difference Overall Drug Liking Emax, D vs A",[3]; [8],14.9
same,"Mean Difference Take Drug Again Emax, D vs A",[3]; [8],14.9
same,"Mean Difference Drug Liking Emax, D vs A","[3]; phentermine HCl 60 mg vs SDX Cl 120 mg, margin 10",15.5
same,"Mean Difference Any Effects Emax, D vs B",[3]; [9],28.0
same,"Mean Difference Bad Effects Emax, D vs B",[3]; [9],4.6
same,"Mean Difference Feeling Alert/Drowsy Emax, D vs B",[3]; [9],12.2
same,"Mean Difference Feeling High Emax, D vs B",[3]; [9],27.7
same,"Mean Difference Good Effects Emax, D vs B",[3]; [9],30.2
same,"Mean Difference Overall Drug Liking Emax, D vs B",[3]; [9],15.3
same,"Mean Difference Take Drug Again Emax, D vs B",[3]; [9],15.4
same,"Mean Difference Drug Liking Emax, D vs B","[3]; phentermine HCl 60 mg vs SDX Cl 240 mg, margin 10",14.0
same,"Bad Effects Emax, median difference D vs E",[3]; [10],8.0c
same,"Mean Difference Any Effects Emax, D vs E",[3]; [10],48.5
same,"Mean Difference Feeling Alert/Drowsy Emax, D vs E",[3]; [10],23.5
same,"Mean Difference Feeling High Emax, D vs E",[3]; [10],46.4
same,"Mean Difference Good Effects Emax, D vs E",[3]; [10],47.6
same,"Mean Difference Overall Drug Liking Emax, D vs E",[3]; [10],18.6
same,"Mean Difference Take Drug Again Emax, D vs E",[3]; [10],17.1
same,"Mean Difference Drug Liking Emax, D vs E","[3]; phentermine HCl 60 mg vs placebo, margin 10, hydrochloride",22.3
same,"Mean Difference Drug Liking Emax, D vs E","[3]; phentermine HCl 60 mg vs placebo, margin 10, listed as Phentermine, hydrochloride",statistically significantly higher
COC(=O)[C@H](c1ccccc1)[C@H]1CCCCN1C(=O)OC[n+]1cccc(C(=O)N[C@@H](CO)C(=O)O)c1 [serdexmethylphenidate],conversion of SDX to the active d-methylphenidate when snorted,[4],not readily or effectively converted
same,conversion of serdexmethylphenidate to d-methylphenidate,[5],very little conversion
same,"Median Difference Drug Liking Emax, A vs C","[1]; SDX Cl 30 mg vs placebo, bipolar VAS",not significantly different
same,"Median Difference Drug Liking Emax, B vs A","[1]; d-MPH HCl 15 mg vs SDX Cl 30 mg, bipolar VAS",significantly lower
same,effects on multiple abuse-related endpoints vs intravenous placebo,[1]; subjects with a history of non-oral abuse of stimulants,statistically similar
